Residues, ends and D or L forms follow the SMILES beside them. *: point of attachment. AFC = O=c1cc(C(F)(F)F)c2ccc(N*)cc2o1; Cbz = O=C(OCc1ccccc1)*; CH2F = FC*
Legend:
T. crassiceps cysts [1] = format: in vivo, Taenia crassiceps; details: for Percent protection, long-term: BALB/c mice, 5 mice/group, intraperitoneal, treated every day for 30 days post-challenge, left untreated for 5 months, reduction of total cyst number versus controls; for side effects in treated mice, long-term: in vivo
[2] = test system: purified Taenia solium cysteine protease; assay: Inhibition assay of protease inactivators against the high Vmax cocktail, EC100 and Ki ranking (Step VII B); format: biochemical; details: for ranking of protease inactivators by EC100: dilution study, nanomolar levels; for % Inhibition of T. solium CP in vitro: concentration not stated in Table 4; for Ki of protease inactivator: nonlinear fitting and Dixon plot, values not reported
Text: Once the protease inactivators were synthesized in the organic laboratory, they were to be tested for the lowest efficacious concentrations at which they induced 100% inhibition of the target protease (EC100). The top percent cocktail that was employed in the final vehicle selection step of Step III was employed as the source of competition for the inhibitors. In this case, this was the […] which was comprised of Z-FR-AFC, Z-FAR-AFC, Z-AP-AFC, Z-AAK-AFC, and Z-VLR-AFC. The final result would be a ranking of transition state candidate protease inactivators with a high ranking directly correlating to a low EC100 value. The following steps describe the assay:
Step A: Initial Screening. To set up the test control, each protease inactivator was first incubated with the […] (which provided the final differentiation of vehicles in Step III). To begin with, the protease inactivator was incubated at a concentration of 3 X 10^-9M in 500 ul of assay buffer ([…], pH 4.9 supplemented with 10mM L-cysteine). This concentration was determined, after a series of inhibitor dilutions identified, to be the best inhibitor concentration at which a differentiation in inhibitor potential could be noted. Next, a concentration equal to 4 X 10^-5M for each of the individual cocktail components, was added to the mix. The components were allowed to equilibrate for a period of 30 minutes. Finally, active purified enzyme was added to the tubes at a concentration which was always at least 50 times less than the concentration of the lowest concentration in the mix (to provide saturating conditions.) This concentration varied from purification to purification and the amount added depended upon the yield and specific activity of the purified protease.
Positive controls were set up similarly as described for test controls, except that solvent was added in substitution for the protease inactivator (in a volume equal to the […] volume addition). All of the protease inactivators could be dissolved in dimethylsulfoxide (DMSO), and therefore, this was the solvent of choice. Negative controls were set up by adding the protease inactivator and the cocktail substrates in a tube, without the protease. All potential non-proteolytic induced liberation of AFC was therefore controlled for in this tube (a feature which also insured stability of the AFC substrates, since these substrates will freely liberate AFC when unstable).
All controls were set up in triplicate, and experiments repeated a minimum of five times. The assays were incubated at 37°C, overnight. Percent inhibition was calculated as: % Inhibition = ((AFC positive for ʺSIʺ-AFC negative for ʺSIʺ)-(AFC test-AFC negative for ʺSIʺ))/(AFC positive for ʺSIʺ-AFC negative for ʺSIʺ) × 100 [formula]
Because of this, a dilution study was required in order to determine a viable ranking. Thus, the concentration of each of the protease inactivators was lowered with a dose response setup until the most efficacious concentration for 100% inhibition (EC100) could be determined. […] The final result of the assay was a ranked candidate list of protease inactivators. A lower EC100 was attributable to a higher ranking and vice-versa.
In order to determine Ki, all of the high Vmax cocktail substrates were employed for Ki determination (since Ki of the inhibitor for the enzyme is the same regardless of the substrate). To insure the highest accuracy, Ki was to be determined upon a minimum of at least three of the high Kcat substrates. Nonlinear fitting and the Dixon plot were both employed to determine Ki of the top ranked protease inactivators. A further plot was constructed using either Eadie Hofstee as well as Hanes to determine the mode of inhibition. These methods were used in order to determine the type of inhibition.

Taenia crassiceps cysts = assay: Short-term prophylactic protection of BALB/c mice from cysticercosis infection; format: in vivo; details: for % Prophylactic protection of BALB/c mice: pre-injected two days, 10 T. crassiceps cysts/mouse, dosed daily for four weeks, cysts counted after one month, versus untreated controls
[3] = test system: normal BALB/c mouse splenocytes; assay: Mouse splenocyte proliferation (3H-thymidine incorporation) with inhibitor alone or inhibitor and Con-A; format: cell-based; details: for proliferative response of splenocytes (3H-thymidine incorporation): inhibitor alone; for responsiveness of splenocytes to Con-A: inhibitor and Con-A; for toxicity to normal BALB/c mouse splenocytes in vitro: preliminary results
T. crassiceps cysts [4] = assay: Therapeutic protection study in BALB/c mice; format: in vivo, Taenia crassiceps; details: inhibitor treatment began two weeks after infection with T. crassiceps cysts
Text: Mice in all groups survived without noticeable side effects (e.g., coat condition, tail dragging or paresis, etc).

[5] = test system: purified Taenia solium cysteine protease; assay: Competitor assay of low Vmax substrates (vehicles) against high Vmax substrate cocktails (Step III), purified protease; format: biochemical; details: robustness of inhibition

Row | SMILES | Percent protection, long-term (T. crassiceps cysts [1]) | side effects in treated mice, long-term (T. crassiceps cysts [1]) | ranking of protease inactivators by EC100 [2] | % Inhibition of T. solium CP in vitro [2] | Ki of protease inactivator [2] | protection from cysticercosis infection, subsequent repeat of the prophylactic experiment (Taenia crassiceps cysts; identical prophylactic experiment repeated) | % Prophylactic protection of BALB/c mice (Taenia crassiceps cysts) | % Prophylactic protection of BALB/c mice (Taenia crassiceps cysts; listed as Leucine-Leucine-Tyrosine-Fluoromethylketone) | side effects / inhibitor toxicity in treated mice, short-term (Taenia crassiceps cysts; visual inspection (coat condition, tail dragging or paresis)) | proliferative response of splenocytes (3H-thymidine incorporation) [3] | responsiveness of splenocytes to Con-A [3] | responsiveness of splenocytes to Con-A ([3]; listed as LLY-FMK) | toxicity to normal BALB/c mouse splenocytes in vitro [3] | % Prophylactic protection of BALB/c mice (Taenia crassiceps cysts; listed as Leucine-Leucine-Leucine-Fluoromethylketone) | responsiveness of splenocytes to Con-A ([3]; listed as LLL-FMK) | % Therapeutic protection of BALB/c mice (T. crassiceps cysts [4]) | percentage drop in inhibition between the 1.4% and the 7.4% cocktail [5]
1 | CC(C)C[C@H](NC(=O)OCc1ccccc1)C(=O)N[C@@H](CC(C)C)C(=O)N[C@@H](Cc1ccc(O)cc1)C(=O)CF [Z-LLY-FMK, Z-Leu-Leu-Tyr-FMK] (Cbz-Leu-Leu-Tyr-CH2F) | 95% | no side effects were noted | top inhibitors | 97% | lowest Ki values | 75%-90% | 85-97% | 85-97% | no mice showed effects of inhibitor toxicity | do not induce a proliferative response | unaffected | do not affect the responsiveness | nontoxic |  |  |  | 
2 | CC(C)C[C@H](NC(=O)[C@H](CC(C)C)NC(=O)[C@H](CC(C)C)NC(=O)OCc1ccccc1)C(=O)CF [Z-LLL-FMK, Z-Leu-Leu-Leu-fluoromethylketone] (Cbz-Leu-Leu-Leu-CH2F) | 80% | no side effects were noted | top inhibitors | 100% | lowest Ki values |  | 100% |  |  | do not induce a proliferative response | unaffected |  | nontoxic | 100% | do not affect the responsiveness | 60% | 
3 | CC(C)C[C@H](NC(=O)OCc1ccccc1)C(=O)N[C@@H](CC(C)C)C(=O)N[C@@H](CC(C)C)C(=O)Nc1ccc2c(C(F)(F)F)cc(=O)oc2c1 [Z-LLL-AFC, Z-Leu-Leu-Leu-AFC] (Cbz-Leu-Leu-Leu-{AFC}) |  |  |  |  |  |  |  |  |  |  |  |  |  |  |  |  | 25%

— EP1276895B1, “METHOD FOR THE IDENTIFICATION OF ACTIVE SITE PROTEASE INACTIVATORS” (THE UNIVERSITY OF GEORGIA RESEARCH FOUNDATION, INC., priority 2000, dated 2001)
